Laboratory results reported in PubChem BioAssay (NCI).
“And” between values parts separate entries of the source, which are not always exact repeats. Equal values may be shown once.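 In this assay, cells in 96-well plates receive the compound at five concentrations for 48 hours. Endpoints are linearly interpolated between the surrounding concentrations. The concentration for 50% growth inhibition is given as GI50. Definition used: TGI = concentration required for complete inhibition of growth.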

Assays:
Assay in all cases: NCI anticancer screen, dose series, 48 h
[1] = system: A549 NSCLC
[2] = system: CCRF-CEM leukemia
[3] = system: DU-145 prostate
[4] = system: IGROV1 ovarian
[5] = system: MDA-MB-231 breast
[6] = system: NCI-H23 lung
[7] = system: SF-539 CNS
[8] = system: SW-620 colon
[9] = system: UACC-257 melanoma
[10] = system: LOX IMVI melanoma

Row | Structure (SMILES) | GI50 [1] | TGI [1] | GI50 [2] [µM] | TGI [2] [µM] | GI50 [3] [µM] | TGI [3] [µM] | GI50 [4] [µM] | TGI [4] [µM] | GI50 [5] [µM] | TGI [5] [µM] | GI50 [6] [µM] | TGI [6] [µM] | GI50 [7] [µM] | TGI [7] [µM] | GI50 [8] [µM] | TGI [8] | GI50 [9] | TGI [9] | TGI [10] [µM] | GI50 [10] [µM]
1 | COc1ccc(C(=O)/C=C/c2c(C(F)(F)F)nc3sccn23)cc1OC | 4.65 µM | > 100 µM | 2.33 | > 100 | 1.64 | 5 | 3.15 | > 100 | 5.91 | > 100 | 2.78 | 27.9 | 2.36 | 8.52 | 1.49 | > 100 µM | 7.77 µM | > 100 µM |  | 
2 | CC(=O)NCCSC(=O)c1ccccc1 |  | 2.06 µM |  | 0.49 |  | 2.62 |  | > 29.6 |  | 7.71 |  | 0.191 |  | 1.39 |  |  |  | 0.419 µM | 0.306 | 
3 | NC(=NC1CCCCCCC1)c1ccc(N2CCN(c3ccc(C(N)=NC4CCCCCCC4)cc3)CC2)cc1 | 4.25 µM | > 100 µM | 89.8 | > 100 | 1.94 | 12.6 | 53.1 | > 100 | 12.5 | 30.6 | 6.8 | 45.8 |  |  | 8.91 | 38.5 µM |  |  | > 100 | > 100
4 | C=C1C(=O)OC2C1CC[C@H](C)C13OC(=O)CC1[C@@]23C (stereo not given in full) |  | > 100 µM |  | > 100 |  |  |  | > 100 |  |  |  | > 100 |  | > 100 |  | > 100 µM |  | > 100 µM |  | 
5 | CCN(CCNc1ccc(C)c2sc3cc(Cl)ccc3c(=O)c12)CC(C)O (stereo not given) | 1.85 µM | 3.45 µM | 2.02 | 4.27 | 3.87 | 18.2 | 1.25 | 2.78 | 1.99 | 4.17 | 2.53 | 4.77 | 1.59 | 2.95 | 1.8 | 3.51 µM |  |  | 3.72 | 1.85
6 | O=c1c2cccc3cccc(c4oc5c6cccc7cccc(c(=O)c5c14)c76)c32 |  | 25.4 µM |  | 22.1 |  |  |  | 28.7 |  |  |  | 20.1 |  | 31.5 |  | 17 µM |  | 30 µM | 17.2 | 
7 | OCC(O)C(OC1OC(CO)C(O)C(O)C1O)c1nn(-c2ccccc2)c2nc3cc(Cl)c(Cl)cc3cc12 (stereo not given) |  |  |  | > 100 |  |  |  |  |  |  |  | > 100 |  | > 100 |  |  |  | > 100 µM | > 100 | 
8 | O=C1CC(c2ccc3c(c2)OCO3)Nc2cc3c(cc21)OCO3 (stereo not given) | 0.6 µM | > 100 µM | 0.363 | > 100 | 0.405 | 14.7 |  |  |  |  | 0.479 | > 100 | 0.301 | 1.2 | 0.357 | > 100 µM | 21.3 µM | 83 µM | 15.3 | 0.467
9 | COC(C(=O)C(O)C(C)O)C1Cc2cc3cc(OC4CC(OC(C)=O)C(OC5CC(O)C(OC)C(C)O5)C(C)O4)cc(O)c3c(O)c2C(=O)C1OC1CC(OC2CC(OC3CC(C)(O)C(OC(=O)C(C)C)C(C)O3)C(O)C(C)O2)C(O)C(C)O1 (stereo not given) | 0.0328 µM and 0.00452 µM | 12.3 µM and 11.1 µM |  |  |  | 0.569 |  |  |  | 0.551 |  |  | 0.000553 |  |  | 3.98 µM and 2.22 µM | 0.00348 µM and < 0.0155 µM | 0.0977 µM and 0.0249 µM and < 0.0492 µM |  | 
